Series [1] deals with T1, lipoxygenase-1 from soybean (Glycine max, UniProt P08170).
T1 construct: purchased
T1 sequence (P08170 1-839): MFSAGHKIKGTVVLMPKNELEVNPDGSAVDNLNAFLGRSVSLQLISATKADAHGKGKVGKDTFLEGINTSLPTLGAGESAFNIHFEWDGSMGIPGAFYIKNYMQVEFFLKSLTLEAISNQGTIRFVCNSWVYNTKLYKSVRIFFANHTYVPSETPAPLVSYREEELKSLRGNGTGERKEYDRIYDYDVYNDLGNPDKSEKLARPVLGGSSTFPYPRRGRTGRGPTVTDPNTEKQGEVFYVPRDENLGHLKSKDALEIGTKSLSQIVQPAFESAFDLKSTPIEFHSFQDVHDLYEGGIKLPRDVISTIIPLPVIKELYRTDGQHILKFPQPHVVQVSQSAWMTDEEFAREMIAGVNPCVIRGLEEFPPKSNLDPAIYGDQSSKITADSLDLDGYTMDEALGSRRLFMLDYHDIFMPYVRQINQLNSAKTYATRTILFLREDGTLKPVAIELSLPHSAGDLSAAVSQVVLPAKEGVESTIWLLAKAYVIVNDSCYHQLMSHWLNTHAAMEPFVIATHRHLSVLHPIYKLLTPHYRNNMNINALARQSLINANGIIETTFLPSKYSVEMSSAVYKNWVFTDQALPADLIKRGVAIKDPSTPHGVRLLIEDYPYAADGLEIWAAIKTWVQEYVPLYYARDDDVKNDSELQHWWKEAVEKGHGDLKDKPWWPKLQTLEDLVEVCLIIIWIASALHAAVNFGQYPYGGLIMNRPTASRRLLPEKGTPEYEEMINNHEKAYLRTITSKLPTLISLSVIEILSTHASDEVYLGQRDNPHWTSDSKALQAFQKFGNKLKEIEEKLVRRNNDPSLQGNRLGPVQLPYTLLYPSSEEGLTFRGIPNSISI
The series can be described thus: inhibition of soybean lipoxygenase-1. Conditions: ultimate concentration 1.0 mM; read-out: Inhibition (percent) of lipoxygenase from soybean. The format is biochemical. How it is done: Persuasive evidence to inhibition of lipoxygenase was produced by a suitable animal lipoxygenase which had been isolated from rabbit reticulocytes, using a method by Rapoport and coworkers /S. M. Rapoport et al., Eur. J. Biochem. 96, 545 (1979)/. A final concentration of 1 mM of most of the compounds, according to this invention, produced inhibition of 90 percent or more (cf. Example 20). Significant inhibition was even recordable from a final concentration of 0.1 mM of some of the compounds, according to this invention. Substance concentrations were varied to determine the titration curves of inhibition and from these the half-inhibition concentrations (I50 -values). A half-inhibition concentration of 7 μM was established for 5-methyl-2-hydroxy-laurophenone-oxime, an oxime of high anti-asthmatic effectiveness.
Lipoxygenase from rabbit reticulocytes was obtained in electrophoretically and immunologically pure form by means of the method described in the literature /S. M. Rapoport et al., Eur. J. Biochem. 96, 545 (1979)/. Lipoxygenase activity was determined at 25° C. by amperometric measurement of oxygen consumption by means of a Clark electrode in the following system: 0.1M potassium phosphate, pH 7.4, with 0.2-per-cent sodium cholate and 0.53 mM linoleic acid. The enzyme concentration was […] in the sample for measurement. The substances submitted for testing were dissolved in methyl glycol (fresh distillation in vacuum) and pre-incubated ten minutes with the enzyme at measurement temperature and in the absence of sodium cholate and linoleic acid. […] No remarkable inhibition occurred to control samples under these conditions. Enzyme reaction was started by addition of sodium cholate and linoleic acid. The titration curve of inhibition and, consequently, the concentrations required for inhibition by the order of 50 per cent were determined by variation of active substance concentrations. For comparison, the compounds were tested also on commercial lipoxygenase-1 from soybean.

For a further series, the system named is rat's paw. The series can be described thus: carrageenin-induced oedema of rat's paw. As to conditions: 50 mg/kg i.p. The format is in vivo. From the text: This method is an adequate model of asthma bronchiale forms in experimental animals with involvement of IgE-dependent and IgG-dependent allergic reactions /R. Andersson, Brit. J. Pharmacol. 77, 301 (1982)/. The conclusion was, therefore, drawn that the comounds of general Formula I, according to this invention, should, as well, have clearly pronounced antiphlogistic properties. That conclusion was positively verified in vivo by an appropriate inflammatory model in the context of an animal experiment, using carragheenin--induced oedema of rat's paw. The experimental model was handled according to a method proposed by Winter and co-workers /C. A. Winter, E. A. Risley, and G. W. Nuss, Proc. Soc. Exp. Biol. Med. 111, 544 (1962)/ (cf. Example 19).
Inhibition of carrageenin-induced oedema of rat's paw:
Testing is conducted by methods common in international practice /C.A. Winter, E. A. Risley and G. W. Nuss, Proc. Soc. Exp. Biol. Med. 111, 544 (1962)/. Ten rats received intraperitoneal injections of 50 mg/kg body weight of 5-methyl-2-hydroxy-laurophenone-oxime in parallel with 0.1 ml of 0.1-per-cent carrageenin solution (per animal). The development of paw oedema was measured in one-hour intervals, following application, and compared with manifestations in a control group.

Another series is described as follows: solubility in water. Format: physicochemical. Conditions: visible from unambiguous clouding of the sample.
Series [2] has as its system lung strip isolated from guinea pig. The series can be described thus: arachidonic acid-induced contraction of lung strip isolated from guinea pig. As to conditions: Cavia porcellus; 10 μM compound; 0.1 μM to 100 μM arachidonic acid; read-out: reduction in contractile response to arachidonic acid. From the text:
Action of 5-methyl-2-hydroxy-laurophenone-oxime on arachidonic acid-inducedcontraction of lung strip isolated from guinea pig:
The experimental arrangement for this test system was analogous to that described in Example 15, through lung strip isolated from guinea pig was the subject of testing. Contraction, in this test, was induced by rising concentrations of arachidonic acid (concentrated solution in ethanol, kept in N2 atmosphere) and cumulatively measured.

The values below come from patent US4816487A, “1-(2-hydroxyaryl)-alkane-1-on-oximes-procedure of preparation and use in pharmaceuticals” (Humboldt-Universitaet zu Berlin, priority 1985, dated 1989).

`CCCCCCCCCCCC(=NO)c1cc(C)ccc1O` [5-methyl-2-hydroxy-laurophenone-oxime]: the inhibition at 1000 µM in series [1] amounted to 67%. For the same compound, the “Inhibition of carrageenin-induced oedema” value in the series on rat's paw (0.5 hr, + significant, P < 0.05) is listed as 43%; with rat's paw (1 hr, + significant, P < 0.05) it was 47%; in the series with rat's paw (2 hr, + significant, P < 0.05), 34%; with rat's paw (3 hr, + significant, P < 0.05), 34%; in the series on rat's paw (4 hr, not marked significant), 31%; in the series with rat's paw (5 hr, not marked significant), 29%. The solubility in water entry in “solubility in water” is reported as “limited solubility in water”. In series [2], the inhibition at 10 µM was 70%.
